Results as given in publication PMC9855386, “Obtaining a Monoclonal Antibody against a Novel Prometryn-Like Hapten and Characterization of Its Selectivity for Triazine Herbicides” (Biosensors, 2022).

Test system: 7D4 mAb (mouse monoclonal anti-prometryn antibody)
Assay: ic-ELISA cross-reactivity of the 7D4 mAb with triazines
Assay type: binding
Details: for IC50: ic-ELISA, analyte 1000-15.625 and 0 ng/mL; for Cross-Reactivity: relative to prometryn = 100%
Experimental: The ic-ELISA method was used to screen the best-performing fusion mouse sera. They were used to establish the standard curve of antibodies by detecting the supernatant of positive cells. The buffer required for ic-ELISA was the same as previously reported. The specific steps of the operation are as follows: (1) The coated antigen was added to the microplate by diluting it with the required coating solutions (CBS, pH 9.6, 0.05 mol/L). Each well contained 100 µL, which was incubated at 37 °C for three h before being washed three times with washing buffer (PBST, PBS containing 0.1% Tween-20). (2) With sample dilution buffer (PBSTG, PBST containing 0.1% gelatin), the standard prometryn sample and the antiserum/antibody from mice were diluted to the required concentration. The microplate was incubated for 30 min at 37 °C with 50 µL of diluted antiserum or antibody and standard samples of various concentrations. PBST was used three times to wash the dishes. (3) Then, 100 µL of PBSTG-diluent IgG HRP (labeled goat anti-mouse IgG with HRP) was added to each well. After 30 min at 37 °C, the plate was cleaned three times with PBST. (4) Each well was incubated for 15 min in the dark at 25 °C with 100 µL of TMB color developing solution. To stop the reaction, 50 µL of the hydrochloric acid solution was added to each well. The absorbance at OD450 nm was measured with a TECAN Infinite M200 PRO microplate reader from Männedorf, Switzerland.
The ic-ELISA method was used to determine the ideal antibody and antigen mix. The coating antigen and antibody concentration used in the experiment was 1 mg/mL. The dilution multiples of the coating were 1 × 10^3, 2 × 10^3, 4 × 10^3, and 8 × 10^3. The prometryn standard was 1000 ng/mL. The best concentration combination of antigen and antibody was selected to establish the standard curve of the antibody. Prometryn standards were diluted to 1000, 500, 250, 125, 62.5, 31.25, 15.625, 7.8125, 3.90625, and 0 ng/mL, with PBSTG for subsequent ic-ELISA experiments. The standard curve was determined by ic-ELISA. […] Each measured OD value in the curve is the average of three independent repeats. The 7D4 mAb’s inhibition rate was well linearly correlated with the prometryn concentration. […] The 7D4 mAb type was identified as IgG1 using a mouse antibody isotyping kit from Sigma®, St. Louis, MO, USA.
Eleven triazine herbicides were selected to determine their cross-reactivity with 7D4 mAb. […] The cross-reaction rate with the other seven triazines was less than 1%. The hybridoma cell line 7D4 screened in this study can specifically recognize prometryn. […] The cross-reaction rate may vary depending on the immunoassay format and the competitive hapten preparation used.

| SMILES | IC50 [µg/mL] | Cross-Reactivity [%] | Cross-Reactivity (listed as ametryn) [%] | Cross-Reactivity (listed as desmetryn) [%] | Cross-Reactivity (listed as terbumeton) [%] |
| --- | --- | --- | --- | --- | --- |
| CCNc1nc(Cl)nc(NCC)n1 [Simazine] | >1 | <0.39 | – | – | – |
| CCNc1nc(NC(C)(C)C)nc(SC)n1 [Terbutryn] | >1 | <0.39 | – | – | – |
| CC(C)Nc1nc(Cl)nc(NC(C)C)n1 [Propazine] | 0.398011 | 0.98 | – | – | – |
| CCNc1nc(Cl)nc(NC(C)(C)C)n1 [Terbuthylazine] | >1 | <0.39 | – | – | – |
| CCNc1nc(NC(C)C)nc(SC)n1 [Ametryn] | 0.011221 | 34.77 | 34.77 | – | – |
| CNc1nc(NC(C)C)nc(SC)n1 [Desmetryn] | 0.021566 | 18.09 | – | 18.09 | – |
| CCNc1nc(Cl)nc(NC(C)C)n1 [Atrazine] | >1 | <0.39 | – | – | – |
| CCNc1nc(NCC)nc(SC)n1 [Simetryn] | >1 | <0.39 | – | – | – |
| COc1nc(NC(C)C)nc(NC(C)C)n1 [Prometon] | >1 | <0.39 | – | – | – |
| CCNc1nc(NC(C)(C)C)nc(OC)n1 [Terbumeton] | 0.051091 | 7.64 | – | – | 7.64 |
